The source of these data is patent US8846719B2, “Isoxazolo-pyridine derivatives” (Roche Palo Alto LLC, priority 2007, dated 2014).

Each structure is given as a SMILES string.

In the test the target is human GABA A receptor α5β3γ2 (Homo sapiens (Human), UniProt P18507+P31644). Description: [3H]flumazenil competition binding assay, human GABA A α5β3γ2 receptors expressed in HEK293 cells. The following applies: human receptor; displacement of [3H]flumazenil (0.5 nM); means of two determinations; read-out: hKi GABAAa5. The procedure, abridged:
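Ki values, each the mean of two runs, derive from displacement of [3H]flumazenil from human α5β3γ2 GABA A receptors transiently expressed in HEK293 membranes. Binding ran 1 h at 4° C in Krebs-tris, pH 7.5, before filter harvest and scintillation counting.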
(In general: In a radioligand displacement assay an active substance lowers the binding of a labelled ligand.)
Consider `O=C(NCC1CC1)c1ccc(OCc2conc2-c2ccc(F)cc2)nc1` [Example 328, N-Cyclopropylmethyl-6-[3-(4-fluoro-phenyl)-isoxazol-4-ylmethoxy]-nicotinamide], for which the Ki worked out at 17.4 nM.
With `O=C(NC1CC1)c1ccc(OCc2conc2-c2ccc(F)cc2)nc1` [Example 329, N-Cyclopropyl-6-[3-(4-fluoro-phenyl)-isoxazol-4-ylmethoxy]-nicotinamide] the figure was 12.9 nM.
Regarding `O=C(NCC(F)(F)F)c1ccc(OCc2conc2-c2ccc(F)cc2)nc1` [Example 330, 6-[3-(4-Fluoro-phenyl)-isoxazol-4-ylmethoxy]-N-(2,2,2-trifluoro-ethyl)-nicotinamide], the Ki was 15.1 nM.
Regarding `O=C(N[C@H]1CCC[C@@H]1O)c1ccc(OCc2conc2-c2ccc(F)cc2)nc1` [Example 331, 6-[3-(4-Fluoro-phenyl)-isoxazol-4-ylmethoxy]-N-((1S,2S)-2-hydroxy-cyclopentyl)-nicotinamide], the Ki was determined as 17.8 nM.
With `O=C(NCC(O)C(F)(F)F)c1ccc(OCc2conc2-c2ccc(F)cc2)nc1` (stereo not shown) [Example 333, 6-[3-(4-Fluoro-phenyl)-isoxazol-4-ylmethoxy]-N-(3,3,3-trifluoro-2-hydroxy-propyl)-nicotinamide] the figure was 13.1 nM.
As to `O=C(NC(CO)CO)c1ccc(OCc2conc2-c2ccc(F)cc2)nc1` [Example 334, 6-[3-(4-Fluoro-phenyl)-isoxazol-4-ylmethoxy]-N-(2-hydroxy-1-hydroxymethyl-ethyl)-nicotinamide], the Ki was 21.2 nM.
With `CC(=O)NCCNC(=O)c1ccc(OCc2conc2-c2ccc(F)cc2)nc1` [Example 335, N-(2-Acetylamino-ethyl)-6-[3-(4-fluoro-phenyl)-isoxazol-4-ylmethoxy]-nicotinamide] the figure was 37.6 nM.
Turning to `COCCNC(=O)c1ccc(OCc2conc2-c2ccc(F)cc2)nc1` [Example 336, 6-[3-(4-Fluoro-phenyl)-isoxazol-4-ylmethoxy]-N-(2-methoxy-ethyl)-nicotinamide], the Ki is 40.7 nM.
`C[C@@H](O)CNC(=O)c1ccc(OCc2conc2-c2ccc(F)cc2)nc1` [Example 337, 6-[3-(4-Fluoro-phenyl)-isoxazol-4-ylmethoxy]-N—((R)-2-hydroxy-propyl)-nicotinamide]: the Ki amounted to 9.5 nM.
Under `O=C(NCCO)c1ccc(OCc2conc2-c2ccc(F)cc2)nc1` [Example 338, 6-[3-(4-Fluoro-phenyl)-isoxazol-4-ylmethoxy]-N-(2-hydroxy-ethyl)-nicotinamide] stands 23.3 nM.
With `O=C(NCC1(O)CC1)c1ccc(OCc2conc2-c2ccc(F)cc2)nc1` [Example 339, 6-[3-(4-Fluoro-phenyl)-isoxazol-4-ylmethoxy]-N-(1-hydroxy-cyclopropylmethyl)-nicotinamide] the figure was 23.1 nM.
Consider `O=C(NC1CCS(=O)(=O)C1)c1ccc(OCc2conc2-c2ccc(F)cc2)nc1` (stereo not shown) [Example 340, N-(1,1-Dioxo-tetrahydro-1,6-thiophen-3-yl)-6-[3-(4-fluoro-phenyl)-isoxazol-4-ylmethoxy]-nicotinamide], for which the Ki came out at 19.4 nM.
Under `O=C(NCC(F)(F)F)c1ccc(OCc2conc2-c2ccc(Cl)cc2)nc1` [Example 342, 6-[3-(4-Chloro-phenyl)-isoxazol-4-ylmethoxy]-N-(2,2,2-trifluoro-ethyl)-nicotinamide] stands 15.1 nM; under `O=C(NC1CC1)c1ccc(OCc2conc2-c2ccc(Cl)cc2)nc1` [Example 343, 6-[3-(4-Chloro-phenyl)-isoxazol-4-ylmethoxy]-N-cyclopropyl-nicotinamide], 12.4 nM.
Under `CC(C)NC(=O)c1ccc(OCc2conc2-c2ccc(Cl)cc2)nc1` [Example 344, 6-[3-(4-Chloro-phenyl)-isoxazol-4-ylmethoxy]-N-isopropyl-nicotinamide] stands 5.6 nM; under `O=C(NC1CCOCC1)c1ccc(OCc2conc2-c2ccc(Cl)cc2)nc1` [Example 345, 6-[3-(4-Chloro-phenyl)-isoxazol-4-ylmethoxy]-N-(tetrahydro-pyran-4-yl)-nicotinamide], 6.4 nM.
